Measurements published in ChEMBL document CHEMBL5247626, “In vitro and in vivo biological evaluation of newly synthesized multi-target 20(R)-panaxadiol derivatives for treating Alzheimer's disease” (Eur J Med Chem, 2022).
Calls of active or inactive are those of the source. The rule behind the calls is not given here.

Experiments:
[1] = test system: PC-12; assay: Neuroprotective activity against rat PC12 cells assessed as reduction in amyloid beta (25 to 35)-induced cytotoxicity at 15 uM incubated for 4 hrs followed by amyloid beta (25 to 35) treatment for 24 hrs by MTT assay relative to control; type: functional; design: scale not given: the % may be the effect or the level left; settings: time 28 hrs
[2] = target: Amyloid-beta precursor protein (Homo sapiens) (UniProt P05067); assay: Disaggregation of amyloid beta (25 to 35) (unknown origin) self aggregation at 15 uM incubated for 24 hrs by transmission electron microscopy analysis
[3] = test system: PC-12; assay: Neuroprotective activity against amyloid beta (25 to 35)-induced rat PC12 cells assessed as decrease in tau hyperphosphorylation at Thr181 at 15 uM preincubated for 30 mins followed by amyloid beta (25 to 35) addition and measured after 24 hrs by western blot assay; type: functional, cell-based; settings: time 24.5 hrs
[4] = test system: PC-12; assay: Neuroprotective activity against amyloid beta (25 to 35)-induced rat PC12 cells assessed as decrease in total tau protein expression level at 15 uM preincubated for 30 mins followed by amyloid beta (25 to 35) addition and measured after 24 hrs by western blot assay; type: functional, cell-based; settings: time 24.5 hrs
[5] = test system: Mus musculus; assay: Antialzheimer activity against amyloid beta (25 to 35)-induced cognitive deficit ICR mouse model assessed as effect on total number of arm enteries at 1.3 mg/kg,po observed after 11 days of administration by Y maze test; type: functional, organism-based; settings: time 11.0 day
[6] = test system: Mus musculus; assay: Antialzheimer activity against amyloid beta (25 to 35)-induced cognitive deficit ICR mouse model assessed as attenuation of behavioral deficit at 1.3 mg/kg,po observed after 12 to 15 days of administration by Y maze test; type: functional, organism-based; settings: time 12-15 day
[7] = test system: Mus musculus; assay: Antialzheimer activity against amyloid beta (25 to 35)-induced cognitive deficit ICR mouse model assessed as increase in discrimination index at 1.3 mg/kg,po observed after 1 hr of administration by novel object recognition test; type: functional, organism-based
[8] = test system: Mus musculus; assay: Antialzheimer activity against amyloid beta (25 to 35)-induced cognitive deficit ICR mouse model assessed as increase in preferential index at 1.3 mg/kg,po observed after 1 hr of administration by novel object recognition test; type: functional, organism-based
[9] = test system: Mus musculus; assay: Antialzheimer activity against amyloid beta (25 to 35)-induced cognitive deficit ICR mouse model assessed as increase in discrimination index at 1.3 mg/kg,po observed after 24 hrs of administration by novel object recognition test; type: functional, organism-based
[10] = test system: Mus musculus; assay: Antialzheimer activity against amyloid beta (25 to 35)-induced cognitive deficit ICR mouse model assessed as increase in preferential index at 1.3 mg/kg,po observed after 24 hrs of administration by novel object recognition test; type: functional, organism-based
[11] = test system: Mus musculus; assay: Antialzheimer activity against amyloid beta (25 to 35)-induced spatial memory deficit ICR mouse model assessed as increase in exploration time spent at 1.3 mg/kg,po observed at 16 to 20 days of administration by morris water maze test; type: functional, organism-based; settings: time 16-20 day
[12] = test system: Mus musculus; assay: Antialzheimer activity against amyloid beta (25 to 35)-induced spatial memory deficit ICR mouse model assessed as increase in distance travelled in target quadrant at 1.3 mg/kg,po observed at 16 to 20 days of administration by morris water maze test; type: functional, organism-based; settings: time 16-20 day
[13] = Permeability of the compound incubated for 4 hrs by PAMPA-BBB assay based HPLC analysis

Chain of Amyloid-beta precursor protein (Homo sapiens) (P05067 whole entry): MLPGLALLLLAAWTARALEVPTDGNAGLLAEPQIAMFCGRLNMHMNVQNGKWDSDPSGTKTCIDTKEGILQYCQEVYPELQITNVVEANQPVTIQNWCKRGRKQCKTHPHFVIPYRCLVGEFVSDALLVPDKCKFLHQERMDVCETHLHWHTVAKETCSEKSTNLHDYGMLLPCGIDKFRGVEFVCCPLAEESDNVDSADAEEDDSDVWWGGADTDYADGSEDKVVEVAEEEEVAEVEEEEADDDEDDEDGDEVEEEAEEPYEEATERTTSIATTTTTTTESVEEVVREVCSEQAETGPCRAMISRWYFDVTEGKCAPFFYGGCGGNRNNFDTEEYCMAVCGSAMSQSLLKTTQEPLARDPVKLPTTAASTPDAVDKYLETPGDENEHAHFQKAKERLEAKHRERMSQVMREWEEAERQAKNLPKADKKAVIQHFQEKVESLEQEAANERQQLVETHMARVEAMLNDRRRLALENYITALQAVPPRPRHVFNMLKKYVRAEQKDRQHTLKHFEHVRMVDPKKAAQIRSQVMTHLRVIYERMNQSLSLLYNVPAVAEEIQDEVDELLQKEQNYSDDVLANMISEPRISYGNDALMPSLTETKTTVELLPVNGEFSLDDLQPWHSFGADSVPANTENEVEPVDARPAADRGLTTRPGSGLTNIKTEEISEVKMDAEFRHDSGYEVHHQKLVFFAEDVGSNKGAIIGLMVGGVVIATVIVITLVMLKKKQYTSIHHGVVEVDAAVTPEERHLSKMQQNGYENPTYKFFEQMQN

Structure (SMILES): Cc1ccc(NC(=O)O[C@H]2CC[C@]3(C)[C@H]4C[C@@H](O)[C@@H]5[C@@H]([C@@]6(C)CCCC(C)(C)O6)CC[C@@]5(C)[C@]4(C)CC[C@H]3C2(C)C)cc1
- Activity [1]: 64.13%

Structure (SMILES): COc1ccc(-n2cc(C(=O)O[C@H]3CC[C@]4(C)[C@H]5C[C@@H](O)[C@@H]6[C@@H]([C@@]7(C)CCCC(C)(C)O7)CC[C@@]6(C)[C@]5(C)CC[C@H]4C3(C)C)nn2)cc1
- Activity [1]: 52.37%

Structure (SMILES): CC1(C)CCC[C@](C)([C@H]2CC[C@]3(C)[C@@H]2[C@H](O)C[C@@H]2[C@@]4(C)CC[C@H](OC(=O)/C=C/c5ccc(N6CCOCC6)cc5)C(C)(C)[C@@H]4CC[C@]23C)O1
- Activity [1]: 32.75%

Structure (SMILES): CCCCCCCNC(=O)O[C@H]1CC[C@]2(C)[C@H]3C[C@@H](O)[C@@H]4[C@@H]([C@@]5(C)CCCC(C)(C)O5)CC[C@@]4(C)[C@]3(C)CC[C@H]2C1(C)C
- Activity [1]: 59.9%

Structure (SMILES): CCCCCCNC(=O)O[C@H]1CC[C@]2(C)[C@H]3C[C@@H](O)[C@@H]4[C@@H]([C@@]5(C)CCCC(C)(C)O5)CC[C@@]4(C)[C@]3(C)CC[C@H]2C1(C)C
- Activity [1]: 50.09%

Structure (SMILES): COc1cc(/C=C/C(=O)CC(=O)/C=C/c2ccc(O)c(OC)c2)ccc1O
- Activity [2]: Active

Structure (SMILES): CC1(C)CCC[C@](C)([C@H]2CC[C@]3(C)[C@@H]2[C@H](O)C[C@@H]2[C@@]4(C)CC[C@H](OC(=O)Nc5ccc(Cl)cc5)C(C)(C)[C@@H]4CC[C@]23C)O1
- Activity [1]: 64.16%

Structure (SMILES): C=CCNC(=O)O[C@H]1CC[C@]2(C)[C@H]3C[C@@H](O)[C@@H]4[C@@H]([C@@]5(C)CCCC(C)(C)O5)CC[C@@]4(C)[C@]3(C)CC[C@H]2C1(C)C
- Activity [1]: 70.06%

Structure (SMILES): CC1(C)CCC[C@](C)([C@H]2CC[C@]3(C)[C@@H]2[C@H](O)C[C@@H]2[C@@]4(C)CC[C@H](OC(=O)Nc5cccc(F)c5)C(C)(C)[C@@H]4CC[C@]23C)O1
- Activity [1]: 65.25%

Structure (SMILES): CC1(C)CCC[C@](C)([C@H]2CC[C@]3(C)[C@@H]2[C@H](O)C[C@@H]2[C@@]4(C)CC[C@H](OC(=O)NC5CCCCC5)C(C)(C)[C@@H]4CC[C@]23C)O1
- Activity [1]: 66.39%

Structure (SMILES): COc1ccc(NC(=O)O[C@H]2CC[C@]3(C)[C@H]4C[C@@H](O)[C@@H]5[C@@H]([C@@]6(C)CCCC(C)(C)O6)CC[C@@]5(C)[C@]4(C)CC[C@H]3C2(C)C)cc1
- Activity [1]: 65.27%

Structure (SMILES): CC1(C)CCC[C@](C)([C@H]2CC[C@]3(C)[C@@H]2[C@H](O)C[C@@H]2[C@@]4(C)CC[C@H](OC(=O)CN5CCOCC5)C(C)(C)[C@@H]4CC[C@]23C)O1.Cl
- Activity [1]: 23.96%

Structure (SMILES): COc1ccc(OP(=O)(Oc2ccc(OC)cc2)O[C@H]2CC[C@]3(C)[C@H]4C[C@@H](O)[C@@H]5[C@@H]([C@@]6(C)CCCC(C)(C)O6)CC[C@@]5(C)[C@]4(C)CC[C@H]3C2(C)C)cc1
- Activity [1]: 57.15%

Structure (SMILES): CC1(C)CCC[C@](C)([C@H]2CC[C@]3(C)[C@@H]2[C@H](O)C[C@@H]2[C@@]4(C)CC[C@H](OC(=O)c5cn(-c6ccc(F)cc6)nn5)C(C)(C)[C@@H]4CC[C@]23C)O1
- Activity [1]: 33.68%

Structure (SMILES): CC1(C)CCC[C@](C)([C@H]2CC[C@]3(C)[C@@H]2[C@H](O)C[C@@H]2[C@@]4(C)CC[C@H](OP(=O)(Oc5ccc(F)cc5)Oc5ccc(F)cc5)C(C)(C)[C@@H]4CC[C@]23C)O1
- Activity [1]: 48.68%

Structure (SMILES): COc1cc2c(cc1OC)C(=O)C(CC1CCN(Cc3ccccc3)CC1)C2 (centres undefined)
- Activity [3]: Active
- Activity [4]: Active
- Activity [5]: inactive
- Activity [6]: Active
- Activity [7]: inactive
- Activity [8]: inactive
- Activity [9]: Active
- Activity [10]: Active
- Activity [11]: Active
- Activity [12]: Active

Structure (SMILES): CCCNC(=O)O[C@H]1CC[C@]2(C)[C@H]3C[C@@H](O)[C@@H]4[C@@H]([C@@]5(C)CCCC(C)(C)O5)CC[C@@]4(C)[C@]3(C)CC[C@H]2C1(C)C
- Activity [1]: 65.9%

Structure (SMILES): NC(=O)N1c2ccccc2C=Cc2ccccc21 [CARBAMAZEPINE]
- Papp at 4 h [13]: 8.78 ×10⁻⁶ cm/s

Structure (SMILES): CC(C)NC(=O)O[C@H]1CC[C@]2(C)[C@H]3C[C@@H](O)[C@@H]4[C@@H]([C@@]5(C)CCCC(C)(C)O5)CC[C@@]4(C)[C@]3(C)CC[C@H]2C1(C)C
- Activity [1]: 69.45%

Structure (SMILES): CC1(C)CCC[C@](C)([C@H]2CC[C@]3(C)[C@@H]2[C@H](O)C[C@@H]2[C@@]4(C)CC[C@H](OC(=O)c5cn(-c6ccccc6)nn5)C(C)(C)[C@@H]4CC[C@]23C)O1
- Activity [1]: 25.49%

Structure (SMILES): CC1(C)CCC[C@](C)([C@H]2CC[C@]3(C)[C@@H]2[C@H](O)C[C@@H]2[C@@]4(C)CC[C@H](OC(=O)c5cn(-c6ccc([N+](=O)[O-])cc6)nn5)C(C)(C)[C@@H]4CC[C@]23C)O1
- Activity [1]: 23.76%

Structure (SMILES): CC1(C)CCC[C@](C)([C@H]2CC[C@]3(C)[C@@H]2[C@H](O)C[C@@H]2[C@@]4(C)CC[C@H](OC(=O)/C=C/c5ccccc5)C(C)(C)[C@@H]4CC[C@]23C)O1
- Activity [1]: 22.78%

Structure (SMILES): CC1(C)CCC[C@](C)([C@H]2CC[C@]3(C)[C@@H]2[C@H](O)C[C@@H]2[C@@]4(C)CC[C@H](OC(=O)c5cn(-c6ccc(Cl)cc6)nn5)C(C)(C)[C@@H]4CC[C@]23C)O1
- Activity [1]: 36.15%

Structure (SMILES): COc1cc(/C=C/C(=O)O[C@H]2CC[C@]3(C)[C@H]4C[C@@H](O)[C@@H]5[C@@H]([C@@]6(C)CCCC(C)(C)O6)CC[C@@]5(C)[C@]4(C)CC[C@H]3C2(C)C)ccc1O
- Activity [1]: 55.55%

Structure (SMILES): CC1(C)CCC[C@](C)([C@H]2CC[C@]3(C)[C@@H]2[C@H](O)C[C@@H]2[C@@]4(C)CC[C@H](OC(=O)Nc5ccc(F)cc5)C(C)(C)[C@@H]4CC[C@]23C)O1
- Activity [1]: 67.4%

Structure (SMILES): CC1(C)CCC[C@](C)([C@H]2CC[C@]3(C)[C@@H]2[C@H](O)C[C@@H]2[C@@]4(C)CC[C@H](OC(=O)CN5CCN(Cc6ccccc6)CC5)C(C)(C)[C@@H]4CC[C@]23C)O1.Cl
- Activity [1]: 37.37%

Structure (SMILES): CC1(C)CCC[C@](C)([C@H]2CC[C@]3(C)[C@@H]2[C@H](O)C[C@@H]2[C@@]4(C)CC[C@H](OC(=O)/C=C/c5ccco5)C(C)(C)[C@@H]4CC[C@]23C)O1
- Activity [1]: 40.56%

Structure (SMILES): COC(=O)[C@H](NC(=O)CCC(=O)O[C@H]1CC[C@]2(C)[C@H]3C[C@@H](O)[C@@H]4[C@@H]([C@@]5(C)CCCC(C)(C)O5)CC[C@@]4(C)[C@]3(C)CC[C@H]2C1(C)C)c1ccccc1
- Activity [1]: 22.85%

Structure (SMILES): CC1(C)CCC[C@](C)([C@H]2CC[C@]3(C)[C@@H]2[C@H](O)C[C@@H]2[C@@]4(C)CC[C@H](OC(=O)Nc5ccccc5)C(C)(C)[C@@H]4CC[C@]23C)O1
- Activity [1]: 71.32%

Structure (SMILES): COC(=O)[C@H](NC(=O)CCC(=O)O[C@H]1CC[C@]2(C)[C@H]3C[C@@H](O)[C@@H]4[C@@H]([C@@]5(C)CCCC(C)(C)O5)CC[C@@]4(C)[C@]3(C)CC[C@H]2C1(C)C)C(C)C
- Activity [1]: 25.34%

Structure (SMILES): CCNC(=O)O[C@H]1CC[C@]2(C)[C@H]3C[C@@H](O)[C@@H]4[C@@H]([C@@]5(C)CCCC(C)(C)O5)CC[C@@]4(C)[C@]3(C)CC[C@H]2C1(C)C
- Activity [1]: 65.69%

Structure (SMILES): COC(=O)[C@@H](Cc1ccccc1)NC(=O)CCC(=O)O[C@H]1CC[C@]2(C)[C@H]3C[C@@H](O)[C@@H]4[C@@H]([C@@]5(C)CCCC(C)(C)O5)CC[C@@]4(C)[C@]3(C)CC[C@H]2C1(C)C
- Activity [1]: 33.77%

Structure (SMILES): COc1cc(/C=C/C(=O)O[C@H]2CC[C@]3(C)[C@H]4C[C@@H](O)[C@@H]5[C@@H]([C@@]6(C)CCCC(C)(C)O6)CC[C@@]5(C)[C@]4(C)CC[C@H]3C2(C)C)cc(OC)c1OC
- Activity [1]: 36.23%

Structure (SMILES): COC(=O)[C@@H](CC(C)C)NC(=O)CCC(=O)O[C@H]1CC[C@]2(C)[C@H]3C[C@@H](O)[C@@H]4[C@@H]([C@@]5(C)CCCC(C)(C)O5)CC[C@@]4(C)[C@]3(C)CC[C@H]2C1(C)C
- Activity [1]: 16.07%

Structure (SMILES): CC1(C)CCC[C@](C)([C@H]2CC[C@]3(C)[C@@H]2[C@H](O)C[C@@H]2[C@@]4(C)CC[C@H](OC(=O)CN5CCCCC5)C(C)(C)[C@@H]4CC[C@]23C)O1.Cl
- Activity [1]: 12.66%
